From patent US9084806B2, “Hypoxia-responsive nanoparticle for therapy and imaging of hypoxia-involving diseases” (RESEARCH & BUSINESS FOUNDATION SUNGKYUNKWAN UNIVERSITY, priority 2012, dated 2015)
Entries after “also recorded” stand apart in the source; their conditions may differ.

Assays:
[1] = cited from earlier work
SCC7 cancer xenografts = test: In vivo antitumor efficacy; set-up: species or system mice; settings: DOX dose 5 mg/kg, once every three days
Protocol: To evaluate the anti-tumor efficacy of HR-NPs, SCC7 tumor bearing mice were prepared, as previously described. Mice were divided into three groups: (i) normal saline (ii) free DOX at 5 mg/kg, and (iii) DOX-HR-NP11 at 5 mg DOX/kg. When tumors reached 8 mm in diameter, each sample was injected once every three days. Tumor volumes were calculated as a×b^2/2, were a was the largest and b the smallest diameter. The statistical significance of differences (p<0.05) between groups tested was determined using one-way ANOVA test.

SCC7 cells = test: In vitro cytotoxicity, MTT assay; format: cell-based; settings: 24 h, various concentrations
Protocol: To evaluate in vitro cytotoxicity of HR-NPs, they were exposed to the SCC7 cells for 24 h at 37° C., after which the cell viability was measured using the MTT assay (FIG. 6a).
SCC7 (squamous carcinoma) cell lines, obtained from the American Type Culture Collection (Rockville, Md., USA), were cultured in RPMI 1640 medium (Gibco, Grand Island, N.Y., USA) containing 10% (v/v) fetal bovine serum and 1% (w/v) penicillin-streptomycin at 37° C. in a humidified 5% CO2-95% air atmosphere. The cells were seeded at a density of 1 104 cells/well in 96-well flat-bottomed plates. After one day of growth, the cells were washed twice with a PBS (pH 7.4) and incubated for 24 h with various concentrations of free DOX or DOX-HR-NPs (HR-NP8 and HR-NP11) under the hypoxic or normoxic condition. The cells were then washed twice with a PBS (pH 7.4) and the fresh culture medium was added. Twenty microliters of 3-(4,5-dimethylthiazol-2-yl)-2,5-diphenyltetrazolium bromide solution (5 mg/ml in PBS) were added to each well, and the cells were incubated for an additional 4 h at 37° C. Subsequently, the medium was removed, and the cells were dissolved in DMSO. The absorbance at 570 nm was measured using a microplate reader (BioTek, Seoul, Korea).

For `Nc1ncc[nH]1` [2-aminoimidazole], the solubility in water [1] is listed as “readily dissolving in water; also recorded: highly water-soluble”.

In the case of `O=[N+]([O-])c1ncc[nH]1` [2-nitroimidazole], the solubility in water [1] is given as “poorly soluble in water”.

In the case of `COc1cccc2c1C(=O)c1c(O)c3c(c(O)c1C2=O)C[C@@](O)(C(=O)CO)C[C@@H]3O[C@H]1C[C@H](N)[C@H](O)[C@H](C)O1` [free DOX, doxorubicin], the “change in tumor volume” value (SCC7 cancer xenografts) is reported as “considerable increase” and the “cytotoxicity in the hypoxic condition compared with the normoxic condition” value (SCC7 cells) is reported as “comparable”.
